Assays:
Solubility to chloroform = assay type: physicochemical
Experimental: In this embodiment, an effect of introducing a substituent other than hydrogen into R^5 and R^6 of the compounds represented by the general formulas [Chem. 5] to [Chem. 8] will be described. […] In contrast, in the case where R^5 and R^6 are trimethylsilyl groups, the solubility to chloroform at 25° C. is 15.4 wt. %. Thus, it is possible to considerably improve the solubility by introducing the substituent into R^5 and R^6.

[1] = Cyclic voltammetry, oxidation potential; assay type: physicochemical; settings: acetonitrile, tetrabutyl ammonium perchlorate, platinum electrodes
Experimental: The cyclic voltammetry measurements were conducted by using acetonitrile as a solvent and tetrabutyl ammonium perchlorate as a supporting electrolyte. Each of a working electrode and a counter electrode was made from platinum. […] […] Therefore, in the compounds represented by the general formulas [Chem. 5] to [Chem. 8], it is preferable that the cyclic structures are formed by R^1 and R^2 and by R^3 and R^4, and this is supported by the result of this example.

## c1cc(-c2scc3c2OCCO3)ccc1-c1scc2c1OCCO2 [Chem. 9, 1,4-di-(3,4-ethylenedioxy-2-thienyl)benzene]
Solubility to chloroform
  solubility to chloroform: less than 1 wt. %
[1]
  oxidation potential: 1.20 V

## CCCCCCOc1csc(-c2ccc(-c3scc(OCCCCCC)c3OCCCCCC)cc2)c1OCCCCCC [Chem. 11, 1,4-bis(3,4-dihexyloxy-2-thienyl)benzene]
[1]
  oxidation potential: 1.68 V
